According to US20190327974A1, “SYNERGISTS FOR IMPROVED PESTICIDES” (priority 2017, published 2019):

Legend:
[1] = biological target: T1, Electrophorus electricus AChE (Electrophorus electricus, UniProt O42275); test: AChE selectivity (Ellman, acetylthiocholine); format: biochemical; conditions: tested to solubility limit; read-out: Ki Ee AChE
T1 construct: purchased Sigma Type V-S
Experimental: Initially, the KM for AChE with the substrate acetylthiocholine was determined by monitoring thiocholine production with 5,5′-dithiobis(2-nitrobenzoic acid) (DTNB) at 412 nm. Acetylthiocholine was prepared in assay buffer (100 mM NaH2PO4 pH 7.4) to 10 mM and serially diluted 1-in-2 to achieve concentrations from 10 mM to 0.08 mM while AChE was prepared in 20 mM NaH2PO4 pH 7.0 supplemented with 4 mg/ml BSA to 0.4 nM. […] The reaction was initiated by the addition of 20 μl AChE (40 pM final concentration). Product formation was monitored for six minutes at room temperature and the initial rates of thioester hydrolysis were determined by linear regression using GraphPad Prism. The Michalis constant was determined as before (FIG. 10).
AChE inhibition was determined by assaying the initial rate of acetylthiocholine hydrolysis in the presence of either neat DMSO or the boronic acid compounds in DMSO. […] Reactions were prepared by pipetting 178 μl assay buffer supplemented with acetylthiocholine (to a final concentration of 100 μM) and DTBN (to a final concentration of 300 μM) into wells of a 96-well plate. […] The reaction was initiated by the addition of 20 μl enzyme (final concentration 40 pM). Product formation was monitored for six minutes at room temperature and the initial rates of thioester hydrolysis were determined by linear regression. IC50 and Ki values were determined as described previously (FIG. 9).

HB-2 cells = test: Cellular toxicity, Cell Titer Glo; format: cell-based, human
Experimental: (§1) A seven-point, two-fold dose response series, with a 100 uM as the upper limit and a DMSO-only control point was generated using an Echo 550 liquid handler (Labcyte Inc.) in 384-well plates. Subsequently, the human breast cell lines MDA-MB-231 (tumorigenic) and HB2 (non-tumorigenic) were seeded (1000 cells/well) using a multi-drop Combi (Thermo Fisher Scientific) on top of the compounds. Plates were then incubated at 37° C. and 5% CO2 for 48 hours upon which cell viability was assessed by adding CellTiter-Glo® (Promega) to the reaction. The luminescence signal was measured on a Pherastar FS multi-mode plate reader (BMG Labtech).

MDA-MB-231 cells = test: Cellular toxicity, Cell Titer Glo; format: cell-based, human; conditions: Homo sapiens, MDA-MB-231; 48 h incubation, Cell Titer Glo; read-out: Viability IC50 MDA-MB-231
Experimental: as §1

[2] = test system: Lucilia cuprina larvae, laboratory drug-susceptible strain LS; test: Lucilia cuprina larval bioassay (pupation rate), laboratory strain; format: in vivo; conditions: susceptible strain
Experimental: Inhibitor efficacy was determined by treating larvae with diazinon over a range of concentrations, in the presence or absence of the compounds at constant concentrations, and comparing pupation rates.
Two strains of L. cuprina were used: 1) a laboratory reference drug-susceptible strain, LS, derived from collections in the Australian Capital Territory over 40 years ago, with no history of exposure to insecticides; and 2) a field-collected strain, Tara, resistant to diazinon and diflubenzuron (Levot, G. W. & Sales, N. New high level resistance to diflubenzuron detected in the Australian sheep blowfly, Lucilia cuprina (Wiedemann) (Diptera: Calliphoridae). Gen. Appl. Entomol. 31, 43-46 (2002)). The LcαE7 gene was sequenced in each of the strains. Briefly, genomic DNA was prepared from 20 adult female flies from each strain using the DNeasy Blood and Tissue kit (Qiagen). PCR was performed with primers specific to the LcαE7 gene, and the product was cloned into a pGEM-T EASY vector (Promega). Eight clones of the susceptible strain and 10 clones of the resistant strain were sequenced using M13 forward and reverse primers.
Each experiment utilized 50 larvae at each diazinon/malathion concentration. Experiments were replicated three times for diazinon, and twice for malathion. The insecticidal effects were defined by measuring the pupation rate. […] Compounds were also without diazinon or malathion at 1 mg per assay.

[3] = test system: Ostrinia nubilalis (European corn borer); test: CPE combined with boronic acid derivatives on corn leaves; format: in vivo; conditions: for Percentage of efficacy / Evaluation of Larvae number, Mean: boronic acid alone 0.2 mg/ml; for Evaluation of Larvae number, Mean: 12 larvae/box
Experimental: Treatments were performed by spraying a volume of mixture corresponding to 200 l/ha. 4 boxes/condition.
Drying 1 h at 20° C.; Deposit of three leaf fragments per box on water agar (4 box/condition); Infection of each leaf fragment with 4 Ostrinia nubilalis (12 larvae/box); Incubation 18° C./28° C. […] The percentage of mortality was calculated for each assessment times. Statistical analysis of the data was performed with XLSTAT® software (ANOVAs followed by Newman-Keuls tests with a threshold of 5%, see Table below).

Colo205 = test: Cell toxicity panel, viability (luminescence); format: cell-based, human; conditions: Homo sapiens, COLO 205; Readout: Luminescence; read-out: IC50 Viability Cells, Cell line: Colo205
Experimental: (§2) To further establish the safety and cell toxicity of compounds according to this invention, their IC50 in killing a broad panel of human cell lines (including both cancerous and non-cancerous) cell lines was determined, and their cell toxicity was tested.

H23 = test: Cell toxicity panel, viability (luminescence); format: cell-based, human; conditions: Homo sapiens, NCI-H23; Readout: Luminescence; read-out: IC50 Viability Cells, Cell line: H23
Experimental: as §2

HCT116 = test: Cell toxicity panel, viability (luminescence); format: cell-based, human; conditions: Homo sapiens, HCT-116; Readout: Luminescence; read-out: IC50 Viability Cells, Cell line: HCT116
Experimental: as §2

HT29 = test: Cell toxicity panel, viability (luminescence); format: cell-based, human; conditions: Homo sapiens, HT-29; Readout: Luminescence; read-out: IC50 Viability Cells, Cell line: HT29
Experimental: as §2

Hela = test: Cell toxicity panel, viability (luminescence); format: cell-based, human; conditions: Homo sapiens, HeLa; Readout: Luminescence; read-out: IC50 Viability Cells, Cell line: Hela
Experimental: as §2

PC3 = test: Cell toxicity panel, viability (luminescence); format: cell-based, human; conditions: Homo sapiens, PC-3; Readout: Luminescence; read-out: IC50 Viability Cells, Cell line: PC3
Experimental: as §2

293T = test: Cell toxicity panel, viability (luminescence); format: cell-based; conditions: Homo sapiens, HEK-293T; Readout: Luminescence; read-out: IC50 Viability Cells, Cell line: 293T
Experimental: as §2

T1 sequence (O42275 24-633): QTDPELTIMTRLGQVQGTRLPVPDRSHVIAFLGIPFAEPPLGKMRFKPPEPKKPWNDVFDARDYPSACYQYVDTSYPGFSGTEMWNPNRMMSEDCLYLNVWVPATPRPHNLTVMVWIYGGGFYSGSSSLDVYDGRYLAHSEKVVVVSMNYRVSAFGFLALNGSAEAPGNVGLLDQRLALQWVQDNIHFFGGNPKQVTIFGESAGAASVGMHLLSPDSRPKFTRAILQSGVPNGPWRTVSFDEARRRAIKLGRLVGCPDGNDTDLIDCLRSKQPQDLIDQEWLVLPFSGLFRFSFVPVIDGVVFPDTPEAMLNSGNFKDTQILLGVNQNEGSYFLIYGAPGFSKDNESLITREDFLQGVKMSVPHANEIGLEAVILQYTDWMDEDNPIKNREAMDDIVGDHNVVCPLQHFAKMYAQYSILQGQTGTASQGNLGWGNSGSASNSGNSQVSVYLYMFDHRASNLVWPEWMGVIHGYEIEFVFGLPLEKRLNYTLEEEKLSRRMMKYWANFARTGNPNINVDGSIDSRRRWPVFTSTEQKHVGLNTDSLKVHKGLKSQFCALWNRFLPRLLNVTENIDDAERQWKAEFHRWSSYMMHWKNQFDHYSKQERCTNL

Question: With OB(O)c1ccc(OCc2ccccc2F)c(Cl)c1 [Compound 5, 3-Chloro-4(2′-fluorobenzyloxy) phenylboronic acid] as the compound, how does the Ki [1] read?
Answer: > 100 µM

Question: What about the “toxicity to HB-2 cells (in words)” value (HB-2 cells; 48 h, up to 100 μM) of the same compound?
Answer: low toxicity

Question: What about the IC50 (HB-2 cells; Homo sapiens, 48 h incubation, Cell Titer Glo, read-out: Viability IC50 HB-2) of the same compound?
Answer: 77.8 µM

Question: And the IC50 (MDA-MB-231 cells)?
Answer: > 100 µM

Question: What about the “synergism with diazinon (in words)” value [2] of the same compound?
Answer: No synergism was observed

Question: What about the “toxicity of the boronic acid derivative alone (in words)” value ([3]; 0.2 mg/ml, some larvae death with 3.10 and 3.7 at 6 DAT) of the same compound?
Answer: Absence of significant toxicity

Question: What about the Percentage of efficacy ([3]; 1 DAT) of the same compound?
Answer: 0%

Question: What about the “Evaluation of Larvae number, Mean” value ([3]; 1 DAT) of the same compound?
Answer: 12

Question: And the Percentage of efficacy ([3]; 3 DAT)?
Answer: 0%

Question: What about the “Evaluation of Larvae number, Mean” value ([3]; 3 DAT) of the same compound?
Answer: 12

Question: And the Percentage of efficacy ([3]; 6 DAT)?
Answer: 4%

Question: And the “Evaluation of Larvae number, Mean” value ([3]; 6 DAT)?
Answer: 10.3

Question: And the IC50 (Colo205)?
Answer: 79.4 µM

Question: And the IC50 (H23)?
Answer: 92.7 µM

Question: And the IC50 (HCT116)?
Answer: 88.5 µM

Question: And the IC50 (HT29)?
Answer: 62.4 µM

Question: And the IC50 (Hela)?
Answer: 4.8 µM

Question: And the IC50 (PC3)?
Answer: 83.7 µM

Question: And the IC50 (293T)?
Answer: 90.3 µM
